What was measured:
[1] = target: T1, recombinant human 17β-HSD1 (Homo sapiens, UniProt P14061); test: Inhibition of recombinant human 17β-HSD1 (conversion of 3H-estrone to estradiol, HPLC); format: biochemical; conditions: inhibitor 1 μM; 30 nM estrone, 1 mM NADPH, 30 min RT; read-out: 17β-HDS1 Inhibition % at 1 μM
T1 construct: made in house; host or cells: Sd9 (Sf9) insect cells, baculovirus (Bac to Bac Expression System)
T1 sequence (P14061 1-328): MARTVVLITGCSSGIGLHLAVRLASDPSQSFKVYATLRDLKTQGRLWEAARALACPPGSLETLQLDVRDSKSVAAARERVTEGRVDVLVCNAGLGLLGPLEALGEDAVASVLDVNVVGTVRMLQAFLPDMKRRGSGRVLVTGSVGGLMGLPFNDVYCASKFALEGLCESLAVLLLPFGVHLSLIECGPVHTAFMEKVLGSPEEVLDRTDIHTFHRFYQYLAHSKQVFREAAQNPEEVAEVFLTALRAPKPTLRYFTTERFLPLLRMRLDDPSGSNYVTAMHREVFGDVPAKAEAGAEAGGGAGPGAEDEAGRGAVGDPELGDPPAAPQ
Procedure: 17β-HSD1 production and isolation: Recombinant baculovirus was generated by the “Bac to Bac Expression System” (Invitrogen). Recombinant bacmid was transfected to Sd9 insect cells using “Cellfectin Reagent” (Invitrogen). 60 h later cells were harvested; the microsomal fraction was isolated as described by Puranen, T. J., Poutanen, M. H., Peltoketo, H. E., Vihko, P. T. and Vihko, R. K. (1994) Site-directed mutagenesis of the putative active site of human 17 β-hydroxysteroid dehydrogenase type 1. Biochem. J. 304: 289-293. Aliquots were stored frozen until determination of enzymatic activity.
Assay—Inhibition of recombinant human 17β-HSD1: Protein homogenate (0.1 μg/ml) was incubated in 20 mM KH2PO4 pH 7.4 with 30 nM estrone (including 800 000 cpm/ml of ^3H-estrone) and 1 mM NADPH for 30 min at RT, in the presence of the potential inhibitor at concentrations 1 μM or 0.1 μM. Inhibitor stock solutions were prepared in DMSO. Final concentration of DMSO was adjusted to 1% in all samples. The enzyme reaction was stopped by addition of 10% trichloroacetic acid (final concentration). Samples were centrifuged in a microtiter plate at 4000 rpm for 10 min. Supernatants were applied to reverse phase HPLC on a Waters Symmetry C18 column, equipped with a Waters Sentry Guard column. Isocratic HPLC runs were performed at RT at a flow rate of 1 ml/min in acetonitrile:water 48:52 as running solvent. Radioactivity was monitored in the eluate by a Packard Flow Scintillation Analyzer. Total radioactivity for estrone and estradiol were determined in each sample and percent conversion of estrone to estradiol was calculated according to the following formula:
(§1) Percent inhibition was calculated flowingly: % inhibition=100−% conversion

[2] = target: T2, recombinant human 17β-HSD2 (Homo sapiens, UniProt P37059); test: Inhibition of recombinant human 17β-HSD2 (conversion of 3H-estradiol to estrone, HPLC); format: biochemical; conditions: inhibitor 1 μM; 50 nM estradiol, 1 mM NADH, 30 min RT
T2 construct: made in house; host or cells: Sd9 (Sf9) insect cells, baculovirus (Bac to Bac Expression System)
T2 sequence (P37059 1-387): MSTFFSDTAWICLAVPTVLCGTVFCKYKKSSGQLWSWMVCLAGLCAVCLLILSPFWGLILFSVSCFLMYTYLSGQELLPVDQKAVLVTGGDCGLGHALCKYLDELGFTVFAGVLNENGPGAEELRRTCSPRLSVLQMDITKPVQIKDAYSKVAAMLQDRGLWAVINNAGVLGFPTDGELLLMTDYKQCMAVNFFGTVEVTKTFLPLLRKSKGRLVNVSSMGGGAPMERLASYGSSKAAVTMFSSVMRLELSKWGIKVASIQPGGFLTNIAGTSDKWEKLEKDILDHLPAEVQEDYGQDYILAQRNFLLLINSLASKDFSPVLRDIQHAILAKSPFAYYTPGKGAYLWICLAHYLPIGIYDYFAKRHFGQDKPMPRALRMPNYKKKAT
Procedure: 17β-HSD2 production and isolation: Similarly to 17β-HSD1 the Recombinant baculovirus was generated by the “Bac to Bac Expression System” (Invitrogen). Recombinant bacmid was transfected to Sd9 insect cells using “Cellfectin Reagent” (Invitrogen). 60 h later cells were harvested and supernatant were fractionated by the following protocol: • cells were dissolved into 40 ml of A-buffer (40 mM TRIS, pH8.0, 20% glycerol, 20 μM NAD, 0.4 mM PMSF, 150 mM NaCl, 0.5% dodecyl-β-maltoside+protease inhibitor cocktail) • cells were sonicated • lysate was incubated on ice for 15 min • lysate was centrifuged 5000 rpm 15 min, +4° C. • centrifugation of the supernatant 180 000 g 30 min, +4° C. • pellet was dissolved into 8 ml of A-buffer • not resuspended material was removed by centrifugation 5000 rpm 15 min, +4° C. • the clear supernatant was divided into 100 μl aliquots and were stored frozen until determination of enzymatic activity.
The amount of 17β-HSD2 was analysed by immunoblotting and total protein concentration of each extract batch was determined.
Assay—Inhibition of recombinant human 17β-HSD2: Protein homogenate (4 μg/ml) was incubated in 20 mM KH2PO4 pH 8.5 with 50 nM estradiol (including 800 000 cpm/ml of ^3H-estradiol) and 1 mM […] for 30 min at RT, in the presence of the potential inhibitor at concentrations 1 μM or 0.1 μM. Inhibitor stock solutions were prepared in DMSO. Final concentration of DMSO was adjusted to 1% in all samples. The enzyme reaction was stopped by addition of 10% trichloroacetic acid (final concentration). Samples were centrifuged in a microtiter plate at 4000 rpm for 10 min. Supernatants were applied to reverse phase HPLC on a Waters Symmetry C18 column, equipped with a Waters Sentry Guard column. Isocratic HPLC runs were performed at RT at a flow rate ofl ml/min in acetonitrile:water 48:52 as running solvent. Radioactivity was monitored in the eluate by a Packard Flow Scintillation Analyzer. Total radioactivity for estrone and estradiol were determined in each sample and percent conversion of estradiol to estrone was calculated according to the following formula:
as §1

Row | Structure (SMILES) | inhibition at 1 µM [1] | inhibition at 1 µM [2]
1 | CO/N=C1\C[C@@H](CCC(=O)Nc2ncc(C)s2)C2C3CCc4c(cc(I)c(O)c4I)C3CC[C@]12C (stereo partly drawn) [VIV-8, 3-{(13S,15R)-3-Hydroxy-2,4-diiodo-17-[(E)-methoxyimino]-13-methyl-7,8,9,11,12,13,14,15,16,17-decahydro-6H-cyclopenta[a]phenanthren-15-yl}-N-(5-methylthiazol-2-yl)propanamide] | 61% | 2%
2 | CO/N=C1\C[C@@H](CCC(=O)Nc2ncc(C)s2)C2C3CCc4cc(O)c(C#N)cc4C3CC[C@]12C (stereo partly drawn) [VIV-19, 3-{(13S,15R)-3-hydroxy-17-[(E)-methoxyimino]-13-methyl-2-nitrile-7,8,9,11,12,13,14,15,16,17-decahydro-6H-cyclopenta[a]phenanthren-15-yl}-N-(5-methylthiazol-2-yl)propanamide] | 93% | 2%
3 | CO/N=C1\C[C@@H](CCC(=O)Nc2ncc(C)s2)C2C3CCc4cc(O)c([N+](=O)[O-])cc4C3CC[C@]12C (stereo partly drawn) [VIV-2, 3-{(13S,15R)-3-Hydroxy-17-[(E)-methoxyimino]-13-methyl-2-nitro-7,8,9,11,12,13,14,15,16,17-decahydro-6H-cyclopenta[a]phenanthren-15-yl}-N-(5-methylthiazol-2-yl)propanamide] | 64% | 3%
4 | Cc1cnc(NC(=O)CC[C@@H]2C/C(=N\O)[C@@]3(C)CCC4c5cc(Cl)c(O)cc5CCC4C23)s1 (stereo partly drawn) [VIV-28, 3-{(13S,15R)-2-Chloro-3-hydroxy-17-[(E)-hydroxyimino]-13-methyl-7,8,9,11,12,13,14,15,16,17-decahydro-6H-cyclopenta[a]phenanthren-15-yl}-N-(5-methylthiazol-2-yl)propanamide] | 98% | 21%
5 | CO/N=C1\C[C@@H](CCC(=O)Nc2ncc(C)s2)C2C3CCc4c(cc(Br)c(O)c4F)C3CC[C@]12C (stereo partly drawn) [VIV-17, 3-{(13S,15R)-2-Bromo-4-fluoro-3-hydroxy-17-[(E)-methoxyimino]-13-methyl-7,8,9,11,12,13,14,15,16,17-decahydro-6H-cyclopenta[a]phenanthren-15-yl}-N-(5-methylthiazol-2-yl)propanamide] | 83% | 2%
6 | Cc1cnc(NC(=O)CC[C@@H]2C/C(=N\O)[C@@]3(C)CCC4c5ccc(O)cc5CCC4C23)s1 (stereo partly drawn) [VIV-22, 3-{(13S,15R)-3-Hydroxy-17-[(E)-hydroxyimino]-13-methyl-7,8,9,11,12,13,14,15,16,17-decahydro-6H-cyclopenta[a]phenanthren-15-yl}-N-(5-methylthiazol-2-yl)propanamide] | 81% | 4%
7 | CO/N=C1\C[C@@H](CCC(=O)Nc2ncc(C)s2)C2C3CCc4c(ccc(O)c4Cl)C3CC[C@]12C (stereo partly drawn) [VIV-13, 3-{(13S,15R)-4-Chloro-3-hydroxy-17-[(E)-methoxyimino]-13-methyl-7,8,9,11,12,13,14,15,16,17-decahydro-6H-cyclopenta[a]phenanthren-15-yl}-N-(5-methylthiazol-2-yl)propanamide] | 86% | 5%
8 | Cc1cnc(NC(=O)CC[C@@H]2C/C(=N\O)[C@@]3(C)CCC4c5cc(Br)c(O)c(Br)c5CCC4C23)s1 (stereo partly drawn) [VIV-27, 3-{(13S,15R)-2,4-Dibromo-3-hydroxy-17-[(E)-hydroxyimino]-13-methyl-7,8,9,11,12,13,14,15,16,17-decahydro-6H-cyclopenta[a]phenanthren-15-yl}-N-(5-methylthiazol-2-yl)propanamide] | 98% | 28%
9 | CO/N=C1\C[C@@H](CCC(=O)Nc2ncc(C)s2)C2C3CCc4c(cc(F)c(O)c4Br)C3CC[C@]12C (stereo partly drawn) [VIV-18, 3-{(13S,15R)-4-Bromo-2-fluoro-3-hydroxy-17-[(E)-methoxyimino]-13-methyl-7,8,9,11,12,13,14,15,16,17-decahydro-6H-cyclopenta[a]phenanthren-15-yl}-N-(5-methylthiazol-2-yl)propanamide] | 55% | 1%
10 | Cc1cnc(NC(=O)CC[C@@H]2C/C(=N\O)[C@@]3(C)CCC4c5ccc(O)c(Br)c5CCC4C23)s1 (stereo partly drawn) [VIV-26, 3-{(13S,15R)-4-Bromo-3-hydroxy-17-[(E)-hydroxyimino]-13-methyl-7,8,9,11,12,13,14,15,16,17-decahydro-6H-cyclopenta[a]phenanthren-15-yl}-N-(5-methylthiazol-2-yl)propanamide] | 89% | 15%
11 | Cc1cnc(NC(=O)CC[C@@H]2C/C(=N\O)[C@@]3(C)CCC4c5ccc(O)c([N+](=O)[O-])c5CCC4C23)s1 (stereo partly drawn) [VIV-24, 3-{(13S,15R)-3-Hydroxy-4-nitro-17-[(E)-hydroxyimino]-13-methyl-7,8,9,11,12,13,14,15,16,17-decahydro-6H-cyclopenta[a]phenanthren-15-yl}-N-(5-methylthiazol-2-yl)propanamide] | 96% | 33%
12 | CO/N=C1\C[C@@H](CCC(=O)Nc2ncc(C)s2)C2C3CCc4c(ccc(O)c4C#N)C3CC[C@]12C (stereo partly drawn) [VIV-20, 3-{(13S,15R)-3-hydroxy-17-[(E)-methoxyimino]-13-methyl-4-nitrile-7,8,9,11,12,13,14,15,16,17-decahydro-6H-cyclopenta[a]phenanthren-15-yl}-N-(5-methylthiazol-2-yl)propanamide] | 73% | 0%
13 | Cc1cnc(NC(=O)CC[C@@H]2C/C(=N\O)[C@@]3(C)CCC4c5cc([N+](=O)[O-])c(O)cc5CCC4C23)s1 (stereo partly drawn) [VIV-23, 3-{(13S,15R)-3-Hydroxy-2-nitro-17-[(E)-hydroxyimino]-13-methyl-7,8,9,11,12,13,14,15,16,17-decahydro-6H-cyclopenta[a]phenanthren-15-yl}-N-(5-methylthiazol-2-yl)propanamide] | 95% | 6%
14 | CO/N=C1\C[C@@H](CCC(=O)Nc2ncc(C)s2)C2C3CCc4c(ccc(O)c4I)C3CC[C@]12C (stereo partly drawn) [VIV-7, 3-{(13S,15R)-3-Hydroxy-4-iodo-17-[(E)-methoxyimino]-13-methyl-7,8,9,11,12,13,14,15,16,17-decahydro-6H-cyclopenta[a]phenanthren-15-yl}-N-(5-methylthiazol-2-yl)propanamide] | 81% | 0%
